Source: patent US20250179033A1 (priority 2021, published 2025)
Read-outs that look alike come from different tables or passages of the source.

What was measured:
Type in all cases: cell-based
[1] = system: HIV-1 IIIB A17 variant (Y181C/K103N); assay: HIV inhibition assay in TZM-bl cells, A17 variant; conditions: Human immunodeficiency virus 1, IIIB, TZM-bl, read-out: IC50 (TZM, A17), Table 3, TZM-bl, ± SEM, minimum 6 replicates
Description: (§1) Cells and virus culture: TZM-bl cells (42), HIV-1 IIIB virus (43-45) and HIV-1 IIIB (A17 variant) virus (46) as well are the NNRTI resistant mutants (strain NL4-3) (47) were obtained from the NIH HIV Reagent Program. H9 [derivative of HuT 78]cells (ATCC® HTB176™) were obtained from the American Type Culture Collection (Manassas, Virginia, United States of America). These viruses were grown in H9 cells to high titer, which was tested using a HIV p24 (high sensitivity) The detection kit used was sold under the tradename ALPHALISA® Detection Kit (PerkinElmer, Waltham, Massachusetts, United States of America). The viruses were concentrated using Lenti-X Concentrator (Takara Bio USA, Inc., Mountain View, California, United States of America). Infections of TZM-bl cells with either virus was facilitated with 15 μg/mL DEAE-dextran.
(§2) Compounds were serially diluted starting with 10 mM stocks in DMSO. DMSO concentrations were kept the same for all dilutions used within an assay (either 0.005% or 0.05% depending on highest concentration used). Duplicate 96-well plates were set up with 25 μL compound dilution, 25 μL virus, and 50 μL TZM-bl cells (2×10^5/mL) with DEAE-dextran and incubated at 37° C. 5% CO2 for 48 hr. All compounds were tested in triplicate, with single wells of efavirenz dilutions on each plate. All plates had 3-5 control wells without compound, 1 control well with no cells, and 1 control well with a highly toxic level of DMSO (9%). Inhibition assays were set up in clear tissue-culture treated plates with lysates moved to black assay plates or were set up in black tissue culture-treated plates. Medium was removed and the cells were lysed with Glo Lysis Buffer (Promega, Madison, Wisconsin, United States of America). Luciferase Assay System reagent (Promega, Madison, Wisconsin, United States of America) was added to cells and relative light units (RLU) was measured using an EnSpire instrument (PerkinElmer, Waltham, Massachusetts, United States of America). Toxicity assays were set up in clear tissue culture-treated plates. CellTiter-Blue Cell Viability Assay reagent (Promega) was added to the wells after 46 hr incubation, followed by 2 hr incubation. Sodium lauryl sulfate was added to 1.5% to stop the reaction and the plates were measured for fluorescence (560 nmEx/590 nmEm) using an EnSpire instrument (PerkinElmer, Waltham, Massachusetts, United States of America).

[2] = system: HIV-1 IIIB (wild-type); assay: HIV inhibition assay in TZM-bl cells, wild-type; conditions: Human immunodeficiency virus 1, IIIB, read-out: IC50 (TZM, WT)
Description: as §1, §2

[3] = system: TZM-bl cells; assay: Toxicity assay in TZM-bl cells
Description: as §2

[4] = Table 3, TZM-bl, ± SEM, minimum 6 replicates

## N#Cc1ccc(Nc2nc(N)n(S(=O)(=O)c3ccc4ccccc4c3)n2)cc1Cl [Compound 3, 4-[[5-amino-1-(2-naphthylsulfonyl)-1,2,4-triazol-3-yl]amino]-2-chloro-benzonitrile]
[1]
  IC50: 573 ± 130 nM
[2]
  IC50: 1.57 ± 0.19 nM
[3]; Table 3, TZM-bl
  Qualitative Cell Toxicity within inhibition range: None

## Cc1cc(C#N)ccc1Nc1nc(N)n(S(=O)(=O)c2cccc3cc(C#N)ccc23)n1 [Compound 4, 5-[[5-amino-3-(4-cyano-2-methyl-anilino)-1,2,4-triazol-1-yl]sulfonyl]naphthalene-2-carbonitrile]
[1]
  IC50: 287 ± 69.5 nM
[2]; [4]
  IC50: 13.8 ± 2.64 nM
[3]
  Qualitative Cell Toxicity within inhibition range: None

## CC(C)(C)c1ccc(S(=O)(=O)n2nc(Nc3ccc(Cl)cc3)nc2N)cc1 [Compound 6, 1-(4-tert-butylphenyl)sulfonyl-N3-(4-chlorophenyl)-1,2,4-triazole-3,5-diamine]
[1]
  IC50: 295 ± 56.5 nM
[2]; [4]
  IC50: 70.2 ± 10.5 nM
[3]
  Qualitative Cell Toxicity within inhibition range: None

## Nc1nc(Nc2ccc(Cl)cc2)nn1S(=O)(=O)c1ccc(Br)cc1F [Compound 7, 1-(4-bromo-2-fluoro-phenyl)sulfonyl-N3-(4-chlorophenyl)-1,2,4-triazole-3,5-diamine]
[1]
  IC50: 562 nM
[2]; [4]
  IC50: 19.2 ± 2.83 nM
[3]
  Qualitative Cell Toxicity within inhibition range: None

## N#Cc1ccc(Nc2nc(N)n(S(=O)(=O)c3c(Cl)nc4sccn34)n2)cc1 [Compound 8, 4-[[5-amino-1-(6-chloroimidazo[2,1-b]thiazol-5-yl)sulfonyl-1,2,4-triazol-3-yl]amino]-benzonitrile]
[1]
  IC50: 705 ± 1010 nM
[2]; [4]
  IC50: 1.77 ± 0.327 nM
[3]
  Qualitative Cell Toxicity within inhibition range: None

## N#Cc1ccc(Nc2nc(N)n(S(=O)(=O)c3cccc(C#N)c3)n2)cc1 [Compound 9, 3-[[5-amino-3-(4-cyanoanilino)-1,2,4-triazol-1-yl]sulfonyl]benzonitrile]
[1]
  IC50: 709 ± 331 nM
[2]; [4]
  IC50: 105 ± 24.3 nM
[3]
  Qualitative Cell Toxicity within inhibition range: None

## N#C/C=C/c1ccc(Nc2nc(N)n(S(=O)(=O)c3cccc4cc(C#N)ccc34)n2)cc1 [Compound 10, 5-[[5-amino-3-[4-[(E)-2-cyanovinyl]anilino]-1,2,4-triazol-1-yl]sulfonyl]naphthalene-2-carbonitrile]
[1]
  IC50: 215 ± 57.4 nM
[2]; [4]
  IC50: 1.52 ± 0.307 nM
[3]
  Qualitative Cell Toxicity within inhibition range: None

## N#Cc1ccc(Nc2nc(N)n(S(=O)(=O)c3c(Cl)nc4sccn34)n2)cc1Cl [Compound 11, 4-[[5-amino-1-(6-chloroimidazo[2,1-b]thiazol-5-yl)sulfonyl-1,2,4-triazol-3-yl]amino]-2-chloro-benzonitrile]
[1]
  IC50: 175 ± 178 nM
[2]
  IC50: 0.98 ± 0.245 nM
[3]; Table 3, TZM-bl
  Qualitative Cell Toxicity within inhibition range: Low

## Cc1nc(C)c(S(=O)(=O)n2nc(Nc3ccc(C#N)c(Cl)c3)nc2N)s1 [Compound 12, 4-[[5-amino-1-(2,4-dimethylthiazol-5-yl)sulfonyl-1,2,4-triazol-3-yl]amino]-2-chloro-benzonitrile]
[1]
  IC50: 306 ± 107 nM
[2]
  IC50: 0.879 ± 0.072 nM
[3]; Table 3, TZM-bl
  Qualitative Cell Toxicity within inhibition range: None

## N#CCc1ccc(Nc2nc(N)n(S(=O)(=O)c3cccc4cc(C#N)ccc34)n2)cc1 [Compound 13, 5-[[5-amino-3-[4-(cyanomethyl)anilino]-1,2,4-triazol-1-yl]sulfonyl]naphthalene-2-carbonitrile]
[1]
  IC50: 42.9 ± 34.7 nM
[2]; [4]
  IC50: 0.277 ± 0.0367 nM
[3]
  Qualitative Cell Toxicity within inhibition range: None

## N#CCc1ccc2c(S(=O)(=O)n3nc(Nc4ccc(C#N)c(Cl)c4)nc3N)cccc2c1 [Compound 16, 4-[[5-amino-1-[[6-(cyanomethyl)-1-naphthyl]sulfonyl]-1,2,4-triazol-3-yl]amino]-2-chloro-benzonitrile]
[1]
  IC50: 153 ± 59.2 nM
[2]
  IC50: 0.598 ± 0.105 nM
[3]; Table 3, TZM-bl
  Qualitative Cell Toxicity within inhibition range: None

## Cc1nn(C)c(Cl)c1S(=O)(=O)n1nc(Nc2ccc(C#N)c(Cl)c2)nc1N [Compound 17, 4-[[5-amino-1-(5-chloro-1,3-dimethyl-pyrazol-4-yl)sulfonyl-1,2,4-triazol-3-yl]amino]-2-chloro-benzonitrile]
[1]
  IC50: 905 ± 392 nM
[2]
  IC50: 0.305 ± 0.053 nM
[3]; Table 3, TZM-bl
  Qualitative Cell Toxicity within inhibition range: None

## Nc1nc(Nc2ccc(Cl)c(Cl)c2)nn1S(=O)(=O)c1cccc2ccccc12 [Compound 22, N3-(3,4-dichlorophenyl)-1-(1-naphthylsulfonyl)-1,2,4-triazole-3,5-diamine]
[1]
  IC50: > 1000 nM
[2]
  IC50: 4.68 ± 0.572 nM
[3]; Table 3, TZM-bl
  Qualitative Cell Toxicity within inhibition range: None

## CN(C)c1cccc2c(S(=O)(=O)n3nc(Nc4ccc(Cl)cc4)nc3N)cccc12 [Compound 23, N3-(4-chlorophenyl)-1-[[5-(dimethylamino)-1-naphthyl]sulfonyl]-1,2,4-triazole-3,5-diamine]
[1]
  IC50: > 1000 nM
[2]; [4]
  IC50: 10.3 ± 2.01 nM
[3]
  Qualitative Cell Toxicity within inhibition range: None

## C=CC(=O)N(C)c1ccc(S(=O)(=O)n2nc(Nc3ccc(C#N)cc3)nc2N)cc1 [Compound 24, N-[4-[[5-amino-3-(4-cyanoanilino)-1,2,4-triazol-1-yl]sulfonyl]phenyl]-N-methyl-prop-2-enamide]
[2]; [4]
  IC50: 7.88 ± 0.643 nM
[3]
  Qualitative Cell Toxicity within inhibition range: None

## Nc1nc(Nc2ccc(Cl)cc2)nn1S(=O)(=O)c1ccc2cc(Cl)ccc2c1 [Compound 25, 1-[(6-chloro-2-naphthyl)sulfonyl]-N3-(4-chlorophenyl)-1,2,4-triazole-3,5-diamine]
[2]; [4]
  IC50: 4.54 ± 0.33 nM
[3]
  Qualitative Cell Toxicity within inhibition range: None

## C=CC(=O)Nc1cc(C)c(S(=O)(=O)n2nc(Nc3ccc(Cl)cc3)nc2N)c(C)c1 [Compound 26, N-[4-[[5-amino-3-(4-chloroanilino)-1,2,4-triazol-1-yl]sulfonyl]-3,5-dimethyl-phenyl]prop-2-enamide]
[2]; [4]
  IC50: 5.78 ± 0.476 nM
[3]
  Qualitative Cell Toxicity within inhibition range: None

## Cc1cc(S(=O)(=O)n2nc(Nc3ccc(Cl)nc3)nc2N)c(C)cc1Cl [Compound 27, 1-(4-chloro-2,5-dimethyl-phenyl)sulfonyl-N3-(6-chloro-3-pyridyl)-1,2,4-triazole-3,5-diamine]
[1]
  IC50: > 1000 nM
[2]; [4]
  IC50: 34.3 ± 9.91 nM
[3]
  Qualitative Cell Toxicity within inhibition range: None

## Cn1cnc(S(=O)(=O)n2nc(Nc3ccc(Cl)cc3)nc2N)c1 [Compound 28, N3-(4-chlorophenyl)-1-(1-methylimidazol-4-yl)sulfonyl-1,2,4-triazole-3,5-diamine]
[2]; [4]
  IC50: 83.7 ± 19.3 nM
[3]
  Qualitative Cell Toxicity within inhibition range: None

## Nc1nc(Nc2ccc(Cl)cc2)nn1S(=O)(=O)c1cnc(Cl)c(Br)c1 [Compound 29, 1-[(5-bromo-6-chloro-3-pyridyl)sulfonyl]-N3-(4-chlorophenyl)-1,2,4-triazole-3,5-diamine]
[2]; [4]
  IC50: 14.3 ± 7.27 nM
[3]
  Qualitative Cell Toxicity within inhibition range: None

## Nc1nc(Nc2ccc(Cl)cc2)nn1S(=O)(=O)c1ccc(-c2ccc(F)cc2)cc1 [Compound 30, N3-(4-chlorophenyl)-1-[4-(4-fluorophenyl)phenyl]sulfonyl-1,2,4-triazole-3,5-diamine]
[2]; [4]
  IC50: 21.5 ± 4.42 nM
[3]
  Qualitative Cell Toxicity within inhibition range: None

## Cc1cc(C)c(Nc2nc(N)n(S(=O)(=O)c3ccc(Br)c(C)c3)n2)c(C)c1 [Compound 31, 1-(4-bromo-3-methyl-phenyl)sulfonyl-N3-(2,4,6-trimethylphenyl)-1,2,4-triazole-3,5-diamine]
[2]; [4]
  IC50: 19.4 ± 3.67 nM
[3]
  Qualitative Cell Toxicity within inhibition range: None

## CC(=O)N1CCc2cc(S(=O)(=O)n3nc(Nc4ccc(Cl)cc4)nc3N)ccc21 [Compound 34, 1-[5-[[5-amino-3-(4-chloroanilino)-1,2,4-triazol-1-yl]sulfonyl]indolin-1-yl]ethanone]
[2]; [4]
  IC50: 92.6 ± 15.5 nM
[3]
  Qualitative Cell Toxicity within inhibition range: None

## Nc1nc(Nc2ccc(Cl)cc2)nn1S(=O)(=O)CCN1C(=O)c2ccccc2C1=O [Compound 35, 2-[2-[[5-amino-3-(4-chloroanilino)-1,2,4-triazol-1-yl]sulfonyl]ethyl]isoindoline-1,3-dione]
[2]; [4]
  IC50: 14.3 ± 7.27 nM
[3]
  Qualitative Cell Toxicity within inhibition range: None

## Cc1nc(C)c(S(=O)(=O)n2nc(Nc3ccc(Cl)cc3)nc2N)s1 [Compound 36, N3-(4-chlorophenyl)-1-(2,4-dimethylthiazol-5-yl)sulfonyl-1,2,4-triazole-3,5-diamine]
[1]
  IC50: > 1000 nM
[2]; [4]
  IC50: 44.1 ± 12.8 nM
[3]
  Qualitative Cell Toxicity within inhibition range: None
